Legend:
[1] = test system: Caenorhaditiselegans transgene strain CL4176 (expressing Aβ protein); experiment: Paralysis of AD model elegans caused by Aβ (transgene strain CL4176); type: in vivo, Caenorhabditis elegans; settings: 15° C. then 26° C., paralysis counted every three hours, blank control 49.503 ± 0.445
Experimental: Caenorhaditiselegans (Caenorhaditiselegans) transgene strain CL4176 (expressing Aβ protein under temperature inducing) were synchronized and cultured under 15° C. to L1 phase, and then added into coated OP50 microbial medium dishes containing the extracted drugs with different concentrations, at around 25/dish. Three dishes were used in one group. The dishes were cultured under 15° C. for 12 hours and then cultured under 26° C. 36 hours after the change of culturing temperature, the paralyses of the elegans were observed. Count every three hours until all the elegans was paralyzed.

[2] = test system: pPD95.86::α-SYN transgenic C. elegans; experiment: Lifespan of α-SYN transgenic C. elegans (anti-elegan aging experiment); type: in vivo, Caenorhabditis elegans; settings: α-syn transgenic elegans on NGM plates with OP50, 20° C.; α-syn model 11.8 ± 3.66, N2 16 ± 5.68
Excerpt: pPD95.86::α-SYN transgenic C. elegans were establish by Sun et al. and preserved in the Department of Neurosurgery, the First Affiliated Hospital of Sun Yat-sen University, China. The method for establishing the α-SYN transgenic C. elegans was described in detail by Sun et al. (Toxic effect of Parkinson's disease gene α-Synuclein on Caenorhabditis elegants. New Medicine, 2013, 44 (4): 273-277.)
In brief, a wild-human α-SYN cDNA were amplified by PCR and inserted into the plasmid pPD95.86. Transgenic plasmids were isolated and injected into the gonad of synchronized N2 C. elegants at a concentration of 100 ng/μl. The transgenic F2 (second generation) worms was selected and then mutated under UV radiation. The UV treated F2 worms were backcrossed to wild type worms to generate stable α-SYN transgenic lines. The α-SYN transgenic lines express α-SYN and therefore have shorter life span and impaired motor functions.
A solution containing E. coli OP50, and biotae extracts and diterpenoid compounds of different concentrations are coated onto NGM plates. N2 elegans are synchronized to L4 phase under 20° C. Three plates are employed in one experimental group, and each plate includes about 25 elegans. The number of live elegans is recorded every day, and the elegans are transferred into a new NGM plate when the food is used up or there is mold contamination. The experiment pends till all the elegans are dead.

PC12 cells = experiment: MPP+ induced injury of PC12 cells (PD model cells), MTT assay; type: cell-based, rat; parameters: Relative Cell Activity %: concentration or dose not given beside the values; settings: PC12 cells with MPP+ and test substance, 24 hours; for average OD value: MTT assay, model group 1.061 ± 0.035, normal control 2.198 ± 0.046; for Relative Cell Activity %: MTT, normal control 100, model group 48.3
Experimental: PC12 cells (rat adrenal pheochromocytoma cell strain), which show many similar characters with dopaminergic neurons, was cultured in DMEM medium (which contains 5% horse serum, 5% fetal bovine serum, 100 U/mL penicillin, 100 µg/mL streptomycin), in an incubator under 37° C., saturated humidity, and 5% CO2. The medium was replaced every 2-3 days, and the cells were subcultured when the cells cover 70-80% area of the plate. Cells in log phase and under fine growth conditions were chosen, and inoculated in 96 well plate at 1-5×10^5 and 100 μl per well. After culturing under 37° C. for 24 hours and the cells adhere to the walls of the wells, MPP^+ medium was added to the model group, a medium containing MPP^+(1-methyl-4-phenylpyridinium) and semen biotae extracts/diterpenoid compounds were added to experimental group, and a medium with no drug was added to the blank control group. Then the media were continued to culture in the incubator for 24 hours. MTT assay was used to evaluate cell activity.

Row | Molecule | Average Living Time [1] [h] | Living time [2] [days] | average OD value (PC12 cells) | Relative Cell Activity % (PC12 cells) [%]
1 | C=C[C@@]1(C)CC[C@H]2C(=CC[C@@H]3[C@]2(C)CCC[C@@]3(C)C(=O)O)C1 [Isopimaric acid] | 52.785 ± 0.432 | 14.9 ± 1.55 | – | –
2 | C=C1CC[C@@H]2[C@](C)(CCC[C@]2(C)C(=O)O)[C@H]1C/C=C(\C)C=O [Naphthalenecarboxylic acid, decahydro-1,4a-dimethyl-6-methylene-5-[(2E)-3-methyl-4-oxo-2-butenyl]-, (1S,4aR,5S,8aR)-] | 52.136 ± 0.415 | 14.4 ± 3.42 | 1.236 ± 0.085 | 56.2
3 | Platyclolactonic Acid | – | 13.95 ± 2.26 | – | –
4 | C=C1CC[C@@H]2[C@](C)(CCC[C@]2(C)C(=O)O)[C@H]1/C=C/C(C)=O [1-Naphthalenecarboxylic acid, decahydro-1,4a-dimethyl-6-methylene-5-[(1E)-3-oxo-1-butenyl]-, (1S,4aS,5S,8aR)-] | – | 14.75 ± 2.22 | – | –
5 | C=CC(C)(O)C(O)CC1C(=C)CCC2C(C)(C(=O)O)CCCC12C (stereo not shown) [12,13-Dihydroxylabda-8(17),14-dien-19-oic acid] | 51.008 ± 0.434 | 14.15 ± 3.1 | – | –
6 | C=CC1(C)C=C2C(O)CC3C(C)(C(=O)O)CCCC3(C)C2CC1 (stereo not drawn) [7α-Hydroxysandaracopimaric acid] | 53.067 ± 0.455 | 14.3 ± 3.01 | – | –
7 | C=C1CC[C@@H]2[C@](C)(CCC[C@]2(C)C(=O)O)[C@H]1CCC(C)=O [1-Naphthalenecarboxylic acid, decahydro-1,4a-dimethyl-6-methylene-5-(3-oxobutyl)-, (1S,4aR,5S,8aR)-] | 50.991 ± 0.568 | 14.35 ± 3.9 | 1.391 ± 0.038 | 63.3
8 | C=CC1(C)C=C2CCC3C(C)(CO)C(O)CCC3(C)C2CC1 (stereo not drawn) [Sandaracopimaradiene-3β,18-diol] | – | 14.05 ± 3.49 | 1.652 ± 0.015 | 75.1
9 | C=C1CC[C@@H]2[C@](C)(CCC[C@]2(C)C(=O)O)[C@H]1CC[C@H](C)CCO [Imbricatolic acid] | 55.857 ± 0.428 | 14.25 ± 2.67 | – | –
10 | C=C1CC[C@@H]2[C@](C)(CCC[C@]2(C)C(=O)OC)[C@H]1CCC1=CCOC1=O [Pinusolide] | 54.003 ± 0.287 | 15.6 ± 2.74 | – | –
11 | C=C[C@@](C)(O)CC[C@H]1C(=C)CC[C@@H]2[C@]1(C)CCC[C@]2(C)C(=O)O [13-Epicupressic acid] | 54.015 ± 0.432 | 13.7 ± 3.34 | – | –
12 | C=C1CCC2C(C)(C(=O)OC)CCCC2(C)C1C/C=C/C (stereo not shown) [14,15-Bisnor-8(17),12E-labdadien-19-oic acid methyl ester] | – | 14.8 ± 3.24 | 1.536 ± 0.035 | 69.9
13 | C=C1CCC2C(C)(C(=O)O)CCCC2(C)C1CCCC(=O)O (stereo not shown) [14,15-bisnor-8(17)-labdene-16,19-dioic acid] | 51.892 ± 0.322 | 14.35 ± 3.38 | 1.292 ± 0.072 | 58.8
14 | C=C1CCC2C(C)(C(=O)O)CCCC2(C)C1CCC1=CC(OC)OC1=O (stereo not shown) [15-Methoxypinusolidic acid] | 55.012 ± 0.399 | 13.55 ± 4.05 | – | –
15 | C=C1CCC2C(C)(C(=O)O)CCCC2(C)C1CC/C(=C\CO)CO (stereo not shown) [15,16-Dihydroxy-8(17),13(E)-labdadien-19-oic acid] | 51.217 ± 0.397 | 14.35 ± 2.62 | – | –
16 | C=C1CCC2C(C)(C(=O)O)CCCC2(C)C1CC1(O)OCC(O)C1(C)O (stereo not shown) [12,13,14-trihydroxylabda-12,15-epoxy-8(17)-en-19-oic acid] | – | 14 ± 3.67 | 1.404 ± 0.057 | 63.9
17 | C=C1CC[C@@H]2[C@](C)(CCC[C@]2(C)C(=O)O)[C@H]1CC/C(C)=C/CO [Isocupressic acid] | 53.879 ± 0.414 | 14.85 ± 2.66 | – | –
18 | C=C[C@]1(C)C=C2CC[C@@H]3[C@](C)(CCC[C@@]3(C)C(=O)O)[C@H]2CC1 [Sandaracopimaric acid] | 53.616 ± 0.443 | 15.85 ± 3.1 | – | –
19 | C=CC1(C)C=C2C=CC3C(C)(C(=O)O)CCCC3(C)C2CC1 (stereo not shown) [6,7-Dehydrosandarapimaric Acid] | 52.435 ± 0.484 | 14.7 ± 2.7 | 1.435 ± 0.044 | 65.3
20 | C=C1CCC2C(C)(C(=O)O)CCCC2(C)C1CCC1=CC(O)OC1=O (stereo not shown) [15-Hydroxypinusolidic acid] | 51.575 ± 0.257 | 14.1 ± 4.68 | 1.585 ± 0.057 | 72.1
21 | C=C1CCC2C(C)(C(=O)O)CCCC2(C)C1CC1OCC=C1CC (stereo not shown) [16-Methyl-12,15-epoxy-8(17),13-labdadien-19-oic acid] | 54.336 ± 0.377 | 13.95 ± 3.9 | – | –
22 | Platyclolactonic Acid Methyl Ester | 51.393 ± 0.487 | 14.3 ± 3.08 | – | –
23 | C=C1CC[C@@H]2[C@](C)(CCC[C@]2(C)C(=O)O)[C@H]1CCC1=CCOC1=O [Pinusolidic acid] | – | 13.8 ± 3.37 | 1.224 ± 0.057 | 55.7
24 | C=C1CCC2C(C)(C(=O)O)CCCC2(C)C1C/C=C(\C)[C@@H](O)CO (stereo partly drawn) [14(R),15-Dihydroxy-8(17),12(E)-labdadien-19-oic acid] | – | 14.5 ± 3.76 | 1.346 ± 0.059 | 61.2
25 | Isopinusolide | 53.988 ± 0.320 | 13.9 ± 3.65 | – | –
26 | C=C[C@@](C)(O)CCC1C(=C)C(O)CC2C(C)(C(=O)O)CCCC12C (stereo partly drawn) [7β,13S-dihydroxylabda-8(17),14-dien-19-oic acid] | – | 13.7 ± 2.85 | 1.359 ± 0.045 | 61.8
27 | CC(C)c1c(O)ccc2c1CCC1C2(C)C(=O)CC(O)C1(C)C (stereo not drawn) [1-oxo-3β-hydroxytotarol] | 53.478 ± 0.357 | 14.6 ± 3.63 | 1.448 ± 0.057 | 65.9
